The values that follow come from US5422341A, “Motilin-like polypeptides with gastrointestinal motor stimulating activity” (Ohmeda Pharmaceutical Products Division Inc., priority 1993, dated 1995).

Structures are written as SMILES. Square brackets hold non-standard residues; d marks the D form. Peptide text beside a SMILES is read from it. * marks the point of attachment. X5 = C=CC[N+](C)(C)[C@@H](Cc1ccccc1)C(=O)*; X1 = C[N+](C)(C)[C@@H](Cc1ccccc1)C(=O)*; NMe2Phe = CN(C)[C@@H](Cc1ccccc1)C(=O)*; NMeF = CN[C@@H](Cc1ccccc1)C(=O)O

The test system of assay [1] is canine gastrointestinal tract. Kind of assay: Contractile activity in the canine gastrointestinal tract. It is filed as in vivo, dog. The note with it: anesthetized dogs, intra-arterial injection to a duodenal segment; amount giving 50% of the calibration response to field stimulation. The procedure:
Mongrel dogs of either sex were anesthetized with sodium pentobarbital 65 mg/kg intravenously. A mid-line incision was made in the abdomen. A duodenal segment was located, the terminal arteries to that segment were identified, and the closest possible artery of the appropriate size was rubbed clean of fat and fascia. A needle of suitable diameter was bent at an angle and the tip inserted in the cleaned artery. The needle was held in position in the artery for approximately 30 seconds until vascular spasm has relaxed and then a catheter assembly was inserted into the artery and tied into position with 000 silk sutures. The fine polyethylene catheter (10-15 cm) was cut to a point at one end with a needle inserted at the other end. The hub of the needle was fitted with a 3-way stopcock and the catheter assembly was filled with heparinized Krebs Ringer bicarbonate containing 10 mM glucose. A bolus of Krebs (free of air) was injected into the arterial catheter and the distribution of blanching in the segment noted. If the area was too large, collateral arteries may be tied off as long as circulation to the area was maintained. A Bass type strain gauge was then sutured to the serosa, and oriented so that circular muscle contractions can be recorded on a Beckman R611 dynograph. Silver wire electrodes were inserted subserosally on either side of the strain gauge and were connected through stimulus isolation units to a Grass S88 electrical stimulator. Electrical field stimulation was applied at 40 V 0.5 ms and 5 pps and the amplitude of the pen recorder was set to contain the contractile response.
All peptides to be injected were dissolved in Krebs and serial dilutions were prepared so that for any concentration the maximum volume to be injected was 1 ml. All solutions except stock Krebs were held on ice for the day of the experiment and discarded at the end of the day. For determination of a dose-response curve, the site was first injected with a bolus of approximately 1 ml of heparinized Krebs to provide a flush control. Peptide agonists (in volumes of 1 ml flushed with 1 ml of Krebs) were injected in logarithmic increments until a response which was maximal in amplitude was obtained. The injection site was then flushed with Krebs containing 0.1% BSA to displace any peptide remaining in the arterial line. For peptides acting at the motilin receptor, care was taken not to inject supramaximal doses as these will induce tachyphylaxis. Therefore, as responses become apparent, 0.3 or 0.5 log unit increments were used. A site was used for a dose-response determination only every 1/2 to 1 hour.
The amplitude of the calibration response to field stimulation in each site was measured and used as 100% for that site. The amplitude of the response to the agonist at each dose was determined, calculated as a % of the calibration response and plotted against the concentration. The ED50 of the response represents the amount of agonist required to produce a response which was 50% of the calibration response.

Assay [2] concerns the target segments of rabbit duodenum (Oryctolagus cuniculus, UniProt G1T803). Kind of assay: Rabbit duodenal smooth muscle strip tissue bath assay. Type of assay: cell-based. The note with it: negative logarithm of the dose giving 50% of the maximal response to motilin; isotonic contraction of rabbit duodenum segments. The gist of the method:
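Isotonic contraction of rabbit duodenal segments after 1 h equilibration and 10^-4 M acetylcholine challenge; cumulative compound curve over 10^-11 to 10^-4 M, then 10^-7 M motilin. Runs discarded if final acetylcholine response differed >5%. EC50 at 50% of maximal motilin response, reported as pEC50.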

For another assay, the target named is T1, motilin receptor (Oryctolagus cuniculus, UniProt G1T803).
T1 construct: from tissue; host or cells: rabbit antral smooth muscle membranes
Kind of assay: Determination of motilin receptor binding affinity (displacement of [125I-Tyr7, Nle13]motilin(porcine)). The arrangement: species or system rabbit. The following applies: negative logarithm of the concentration displacing 50% of [125I-Tyr7, Nle13]motilin(porcine) from rabbit antral smooth muscle membranes; read-out: pIC50 (converted). The procedure: The motilin receptor binding affinity of the peptides of this invention was determined by using the general procedure of Bormans, Peelers and Vantrappen, Regul. […] Fitting was performed using the iterative least-squares procedure of the SAS-software package (SAS Institute, Inc., Cary, N.C., USA).
On the technique in general: Displacement assays read how much labelled ligand stays bound in the presence of the test substance.

segments of rabbit duodenum, sequence (G1T803 1-400): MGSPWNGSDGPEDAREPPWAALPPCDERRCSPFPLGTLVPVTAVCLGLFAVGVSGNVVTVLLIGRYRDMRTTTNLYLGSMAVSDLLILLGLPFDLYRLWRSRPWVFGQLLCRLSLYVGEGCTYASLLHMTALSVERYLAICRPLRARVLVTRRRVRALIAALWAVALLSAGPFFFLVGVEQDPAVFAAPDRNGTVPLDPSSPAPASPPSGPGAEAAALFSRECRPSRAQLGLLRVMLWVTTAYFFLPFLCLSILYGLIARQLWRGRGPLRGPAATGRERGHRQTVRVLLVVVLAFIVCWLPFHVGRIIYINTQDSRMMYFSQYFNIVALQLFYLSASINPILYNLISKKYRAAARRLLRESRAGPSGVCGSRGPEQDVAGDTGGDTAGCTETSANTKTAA
T1 sequence (G1T803 1-400): as above

`CC[C@H](C)[C@H](NC(=O)[C@H](C)NC(=O)[C@@H](NC(=O)[C@H](Cc1ccccc1)[N+](C)(C)C)C(C)C)C(=O)N[C@@H](Cc1ccccc1)C(=O)N[C@H](C(=O)N[C@@H](Cc1ccc(O)cc1)C(=O)NCC(=O)N[C@@H](CCC(=O)O)C(=O)N[C@@H](CC(C)C)C(=O)N[C@@H](C)C(=O)N[C@H](CCCNC(=N)N)C(=O)N[C@@H](CC(C)C)C(=O)N[C@H](CCCCN)C(N)=O)[C@@H](C)O` (X1-VAIFTYGELA[dR]L[dK]-NH2): in assay [1], the ED50 came to 0.007 nmol. Further, the pEC50 in assay [2] is 7.55. Besides, the IC50 at motilin receptor is 1.15 nM.

`CC[C@H](C)[C@H](NC(=O)[C@@H]1CCCN1C(=O)[C@@H](NC(=O)[C@H](Cc1ccccc1)NC)C(C)C)C(=O)N[C@@H](Cc1ccccc1)C(=O)N[C@H](C(=O)N[C@@H](Cc1ccc(O)cc1)C(=O)NCC(=O)N[C@@H](CCC(=O)O)C(=O)N[C@@H](CC(C)C)C(=O)N[C@@H](C)C(=O)N[C@H](CCCNC(=N)N)C(=O)N[C@@H](CC(C)C)C(=O)N[C@@H](CCC(N)=O)C(N)=O)[C@@H](C)O` (H-[NMeF]VPIFTYGELA[dR]LQ-NH2) yielded an ED50 in assay [1] of 0.0018 nmol.

Compound `CC[C@H](C)[C@H](NC(=O)[C@H](C)NC(=O)[C@@H](NC(=O)[C@H](Cc1ccccc1)NC)C(C)C)C(=O)N[C@@H](Cc1ccccc1)C(=O)N[C@H](C(=O)N[C@@H](Cc1ccc(O)cc1)C(=O)NCC(=O)N[C@@H](CCC(=O)O)C(=O)N[C@@H](CC(C)C)C(=O)N[C@@H](CCC(N)=O)C(=O)N[C@H](CCCNC(=N)N)C(=O)N[C@@H](CC(C)C)C(=O)N[C@@H](CCCCN)C(N)=O)[C@@H](C)O` (H-[NMeF]VAIFTYGELQ[dR]LK-NH2) had an ED50 in assay [1] of 0.06 nmol. Further, the negative-log EC50 (pEC50) in assay [2] is reported as 7.72. Also, on motilin receptor, the IC50 is 0.631 nM.

In assay [1], `CC[C@H](C)[C@H](NC(=O)[C@H](C)NC(=O)[C@@H](NC(=O)[C@H](Cc1ccccc1)NC)C(C)C)C(=O)N[C@@H](Cc1ccccc1)C(=O)N[C@H](C(=O)N[C@@H](Cc1ccc(O)cc1)C(=O)NCC(=O)N[C@@H](CCC(=O)O)C(=O)N[C@@H](CC(C)C)C(=O)N[C@@H](CCC(N)=O)C(=O)N[C@H](CCCNC(=N)N)C(=O)N[C@@H](CC(C)C)C(=O)N[C@@H](CCC(N)=O)C(N)=O)[C@@H](C)O` (H-[NMeF]VAIFTYGELQ[dR]LQ-NH2) came in with an ED50 of 0.024 nmol.

`CC[C@H](C)[C@H](NC(=O)[C@H](C)NC(=O)[C@@H](NC(=O)[C@H](Cc1ccccc1)[N+](C)(C)C)C(C)C)C(=O)N[C@@H](Cc1ccccc1)C(=O)N[C@H](C(=O)N[C@@H](Cc1ccc(O)cc1)C(=O)NCC(=O)N[C@@H](CCC(=O)O)C(=O)N[C@@H](CC(C)C)C(=O)N[C@@H](CCC(N)=O)C(=O)N[C@H](CCCNC(=N)N)C(=O)N[C@@H](CC(C)C)C(=O)N[C@@H](CCCCN)C(N)=O)[C@@H](C)O` (X1-VAIFTYGELQ[dR]LK-NH2) returned an ED50 in assay [1] of 0.89 nmol. This compound returned a pEC50 in assay [2] of 7.32. For the same compound, the IC50 on motilin receptor was 1.91 nM.

`CC[C@H](C)[C@H](NC(=O)[C@H](C)NC(=O)[C@@H](NC(=O)[C@H](Cc1ccccc1)[N+](C)(C)C)C(C)C)C(=O)N[C@@H](Cc1ccccc1)C(=O)N[C@H](C(=O)N[C@@H](Cc1ccc(O)cc1)C(=O)NCC(=O)N[C@@H](CCC(=O)O)C(=O)N[C@@H](CC(C)C)C(=O)N[C@@H](C)C(=O)N[C@H](CCCNC(=N)N)C(=O)N[C@@H](CC(C)C)C(=O)N[C@@H](CCCCN)C(N)=O)[C@@H](C)O` (X1-VAIFTYGELA[dR]LK-NH2): the ED50 in assay [1] amounted to 0.001 nmol. In assay [2], this compound displayed a pEC50 of 7.59. In addition, the IC50 on motilin receptor is 1.91 nM.

In turn, `CC[C@H](C)[C@H](NC(=O)[C@H](C)NC(=O)[C@@H](NC(=O)[C@H](Cc1ccccc1)NC)C(C)C)C(=O)N[C@@H](Cc1ccccc1)C(=O)N[C@H](C(=O)N[C@@H](Cc1ccc(O)cc1)C(=O)NCC(=O)N[C@@H](CCC(=O)O)C(=O)N[C@@H](CC(C)C)C(=O)N[C@@H](C)C(=O)N[C@H](CCCNC(=N)N)C(=O)N[C@@H](CC(C)C)C(=O)N[C@@H](CCCCN)C(N)=O)[C@@H](C)O` (H-[NMeF]VAIFTYGELA[dR]LK-NH2) displayed an ED50 in assay [1] of 0.001 nmol. In assay [2], this compound returned a negative-log EC50 (pEC50) of 7.77. For the same compound, the IC50 at motilin receptor was 0.724 nM.

In assay [2], `CC[C@H](C)[C@H](NC(=O)[C@@H]1CCCN1C(=O)[C@@H](NC(=O)[C@@H](N)Cc1ccccc1)C(C)C)C(=O)N[C@@H](Cc1ccccc1)C(=O)N[C@H](C(=O)N[C@@H](Cc1ccc(O)cc1)C(=O)N[C@H](C)C(=O)N[C@@H](CCC(=O)O)C(=O)N[C@@H](CC(C)C)C(=O)N[C@@H](CCC(N)=O)C(=O)N[C@H](CCCNC(=N)N)C(=O)N[C@@H](CC(C)C)C(=O)N[C@@H](CCC(N)=O)C(=O)O)[C@@H](C)O` [[D-Ala^8, D-Arg^12, Leu^13]pMOT(1-14), H-Phe-Val-Pro-Ile-Phe-Thr-Tyr-D-Ala-Glu-Leu-Gln-D-Arg-Leu-Gln-OH] (H-FVPIFTY[dA]ELQ[dR]LQ-OH) displayed a pEC50 of 7.09. Moreover, on motilin receptor, the IC50 was 6.03 nM.

`CC[C@H](C)[C@H](NC(=O)[C@@H]1CCCN1C(=O)[C@@H](NC(=O)[C@@H](N)Cc1ccccc1)C(C)C)C(=O)N[C@@H](Cc1ccccc1)C(=O)N[C@H](C(=O)N[C@@H](Cc1ccc(O)cc1)C(=O)NCC(=O)N[C@@H](CCC(=O)O)C(=O)N[C@@H](CC(C)C)C(=O)N[C@@H](CCC(N)=O)C(=O)N[C@H](CCCNC(=N)N)C(=O)N[C@@H](CC(C)C)C(=O)N[C@@H](CCCCN)C(N)=O)[C@@H](C)O` (H-FVPIFTYGELQ[dR]LK-NH2) gave a pEC50 in assay [2] of 7.13. For the same compound, the IC50 at motilin receptor is 1.29 nM.

Consider `CC[C@H](C)[C@H](NC(=O)[C@H](C)NC(=O)[C@@H](NC(=O)[C@H](Cc1ccccc1)N(C)C)C(C)C)C(=O)N[C@@H](Cc1ccccc1)C(=O)N[C@H](C(=O)N[C@@H](Cc1ccc(O)cc1)C(=O)NCC(=O)N[C@@H](CCC(=O)O)C(=O)N[C@@H](CC(C)C)C(=O)N[C@@H](C)C(=O)N[C@H](CCCNC(=N)N)C(=O)N[C@@H](CC(C)C)C(=O)N[C@H](CCCCN)C(N)=O)[C@@H](C)O` (NMe2Phe-VAIFTYGELA[dR]L[dK]-NH2), for which the pEC50 in assay [2] was found to be 7.73. Moreover, the IC50 at motilin receptor was 4.07 nM.

In the case of `CC[C@H](C)[C@H](NC(=O)[C@@H]1CCCN1C(=O)[C@@H](NC(=O)[C@H](Cc1ccccc1)[N+](C)(C)C)C(C)C)C(=O)N[C@@H](Cc1ccccc1)C(=O)N[C@H](C(=O)N[C@@H](Cc1ccc(O)cc1)C(=O)NCC(=O)N[C@@H](CCC(=O)O)C(=O)N[C@@H](CC(C)C)C(=O)N[C@@H](C)C(=O)N[C@H](CCCNC(=N)N)C(=O)N[C@@H](CC(C)C)C(=O)N[C@H](CCC(N)=O)C(N)=O)[C@@H](C)O` (X1-VPIFTYGELA[dR]L[dQ]-NH2), the pEC50 in assay [2] is 7.25. Besides, at motilin receptor, the IC50 was 2.45 nM.

As to `CC[C@H](C)[C@H](NC(=O)[C@@H]1CCCN1C(=O)[C@@H](NC(=O)[C@H](Cc1ccccc1)NC)C(C)C)C(=O)N[C@@H](Cc1ccccc1)C(=O)N[C@H](C(=O)N[C@@H](Cc1ccc(O)cc1)C(=O)NCC(=O)N[C@@H](CCC(=O)O)C(=O)N[C@@H](CC(C)C)C(=O)N[C@@H](CCC(N)=O)C(=O)N[C@H](CCCNC(=N)N)C(=O)N[C@@H](CC(C)C)C(=O)N[C@H](CCC(N)=O)C(N)=O)[C@@H](C)O` (H-[NMeF]VPIFTYGELQ[dR]L[dQ]-NH2), the ED50 in assay [1] came out at 0.0004 nmol.

Consider `C=CC[N+](C)(C)[C@@H](Cc1ccccc1)C(=O)N[C@H](C(=O)N1CCC[C@H]1C(=O)N[C@H](C(=O)N[C@@H](Cc1ccccc1)C(=O)N[C@H](C(=O)N[C@@H](Cc1ccc(O)cc1)C(=O)NCC(=O)N[C@@H](CCC(=O)O)C(=O)N[C@@H](CC(C)C)C(=O)N[C@@H](CCC(N)=O)C(=O)N[C@@H](CCCNC(=N)N)C(=O)N[C@@H](CC(C)C)C(=O)N[C@@H](CCC(N)=O)C(N)=O)[C@@H](C)O)[C@@H](C)CC)C(C)C` (X5-VPIFTYGELQRLQ-NH2), for which, in assay [2], the pEC50 amounted to 7.47. Besides, the IC50 on motilin receptor is 1.74 nM.

As usually defined, the pEC50 is the negative decadic logarithm of the EC50, by convention in mol/L. Higher therefore signals a low EC50.
